Measured values: patent publication US10208007B2, “Use of strigolactones and strigolactone analogs for treating proliferative conditions” (The State of Israel, Ministry of Agriculture & Rural …, priority 2011, dated 2019)

Assays:
[1] = tested on: MDA-MB-231 mammospheres; test: Mammosphere formation; type: cell-based, human
Procedure: Adherent cells were gently trypsinized, (0.05% trypsin/EDTA) washed twice in PBS and filtered through a […] cell sieve to obtain a single cell suspensions. Cells were diluted to a concentration of 10,000 cell/ml in serum-free phenol-red free MEBM (MEGM Bulletkit, Lonza) supplemented with 5 μg/ml bovine insulin, 20 ng/ml recombinant epidermal growth factor, 20 ng/ml basic fibroblast growth factor (Gibco), 1×B27 supplement, 0.5 μg/ml hydrocortisone (MEGM Bulletkit, Lonza). For MDA-MB-231 mammosphere cultures serum-free phenol red-free CnT-27 medium with growth additives (CellnTEC Advanced cell systems, Bern, Switzerland) was used as previously described. 0.1 ml was seeded per well of a Ultralow attachment 96 well plates. The following day the indicated doses of GR-24 (ppm) or vehicle alone (0.6% acetone f/c) were added. Media was replenished every 3-4 days. Self-renewal capacity of the mammospheres was determined by re-plating and producing further generations of mammospheres. Secondary mammospheres were cultivated by dissociation (trypsinization with gently vortexing) of 10-14 day old primary mammospheres. Single cell suspensions were obtained as described above.

[2] = tested on: GRIM REAPER (GRI); test: Gene transcription level by quantitative PCR: GRI; type: in vivo, Arabidopsis thaliana
Procedure: Seeds of homozygous lines of Arabidopsis thaliana wild type (WT; Columbia; Col-0) and max2-1 mutant (http://abrc.osu.edu/) were surface-sterilized and germinated on 1/2 Murashige and Skoog (MS) plates supplemented with 1% sucrose and solidified with 0.7% agar. Plates were incubated vertically in the dark at 4° C. for two days to synchronize germination. Three days after germination, seedlings were gently transferred using forceps to 1/2 MS plates containing various concentrations of GR-24 as a mixture of four diastereomers: (±)-GR-24 and (±)-2'-epi-GR-24. The root tip of the transferred seedling was marked on the plates. The plates remained unsealed to prevent accumulation of gases (e.g., ethylene), and were positioned in an upright 45° position, and incubated at 22° C. with a light intensity of […] m-2 s-1 provided by white fluorescent tubes and under a photoperiod of 16 hours exposure to light/8 hours in the dark for 6-12 days. GR-24 treatments were conducted at concentrations ranging from 2.7×10^-6 to 13.5×10^-6 M. […] GR-24, ST-357 and ST-362 were initially dissolved in acetone to give a 4.5 mM, 10 μM and 10 μM solutions, respectively, which were then further diluted with double-distilled sterile water (DDW). […] In each of the experiments, non-treated roots were compared to the respective acetone control. Where no difference was observed between the various controls, non-treated roots are shown. Where differences were recorded between non-treated and acetone controls, the comparison was made between GR-24, ST-357 and ST-362-treated and acetone-treated roots. RNA was extracted from seedlings grown and treated as described in Example 1. Quantitative PCR was performed by amplifying fragments of genes of interest (Tables 6 & 7). Arabidopsis 15S ribosomal RNA (GenBank accession no. AT1G04270.1) served as the reference gene for the amount of RNA, and was amplified using specific primers (forward) [NT] and (reverse) [NT]. The experiment was performed in 5-6 biological replicates; each replicate included 8 plants, on which 3 technical repeats were performed. Means and standard error were determined from all biological replicates. Primers were designed using PrimerQuest software (Integrated DNA Technologies). RNA was extracted using Trizol (Invitrogen, Carlsbad, Calif., USA) using the manufacturer's protocol. 1 μg RNA was reverse-transcribed in a total volume of 20 μl using the Superscript First strand cDNA synthesis kit (Invitrogen). […] The expression of each target gene was normalized to the expression of GAPDH RNA and is presented as the ratio of the target gene to GAPDH RNA, expressed as 2-ΔCt, where Ct is the threshold cycle and ΔCt=[NT] […]

[3] = tested on: ALDH1; test: Aldefluor ALDH expression; type: cell-based, human; conditions: MCF-7 primary mammospheres; reduced from 6%
Procedure: MCF-7 mammospheres were trypsinized, gently vortexed and passed through a 40 uM cell filter to produce single cell suspensions. Cells (5×10^5) were washed and re-suspended in growth media (Lonza). To identify the Aldefluor-stained cell population with ALDH1 enzymatic activity, the Aldefluor kit (Stem Cell Technologies), which is designed for optimal identification and isolation of stem cells through specific interaction with human ALDH1 was used. Briefly, cells were suspended in Aldefluor assay buffer containing uncharged ALDH1-substrate, BODIPY-aminoacetaldehyde (BAAA), and incubated for 45 min at 37° C., with gently vortexing every 15 min. BAAA is taken up by living cells through passive diffusion and then converted by intracellular ALDH into a negatively charged reaction product BODIPY-aminoacetate, which is retained inside cells expressing high levels of ALDH1, causing the cells to become brightly fluorescent. Fluorescent ALDH1-expressing cells were detected in the green fluorescence channel (520-540 nm) of a FACScan instrument (BD Biosciences). […] PI (Sigma) fluorescence was detected using the orange fluorescence channel. Cells incubated with BAAA and DEAB were used to establish the baseline fluorescence of cells and ALDH1-positive fraction. Data were analyzed by using Cell Quest software (BD Biosciences). […]

## CC1=C[C@H](O/C=C2/C(=O)O[C@@H]3c4ccccc4C[C@H]23)OC1=O (relative stereo) [GR-24, (3aR*,8bS*,E)-3-(((R*)-4-methyl-5-oxo-2,5-dihydrofuran-2-yloxy)methylene)-3,3a,4,8b-tetrahydro-2H-indeno[1,2-b]furan-2-one]
[1]; 2.5 ppm
  Mammosphere growth: severely attenuated
[1]; 5 ppm
  Mammosphere formation: completely blocked
[1]; MDA-MB-231
  Concentration to block mammosphere formation, fold lower than IC50 dose for monolayer growth: 2.7 fold
[2]; 3 μM
  GRI gene expression induction: 2.3 fold
[2]; WT seedlings, 3 μM
  GRI transcription level versus controls: 33.008 ± 7.121
[2]; max2-1 mutants
  GRI gene transcription: not induced
[2]; max2-1 seedlings, 3 μM
  GRI transcription level versus controls: 0.214 ± 0.193
[3]
  ALDH activity (ALDH positive cells) after treatment: 2%
